The target in data set [1] is recombinant human Cathepsin S (Homo sapiens (Human), UniProt P25774). In words: Cathepsin S assay procedure (fluorogenic substrate Z-Val-Val-Arg-AMC). Format: biochemical. On the procedure: 25 μl of a 2 mg/l solution of activated recombinant human cathepsin S, in assay buffer, is then added to the well, yielding a final inhibitor concentration of 10 μM.
Enzyme activity is determined by measuring the fluorescence of the liberated aminomethylcoumarin at […] using 390 nm excitation, at 20 minutes. Percentage enzyme activity is calculated by comparison of this activity to that of a solution containing no inhibitor.

Another data set is described as follows: Rat oral bioavailability. The following applies: Sprague-Dawley, in vivo, SD rat, read-out: Bioavailability F.
The test system of data set [2] is Human B lymphoblastoid cells (Jiyoye). In words: Cell based Lip10 assay (lip10 accumulation, anti-CD74 ELISA). Particulars: 24 hours, relative to E64d/LHVS-treated cells, read-out: pEC50 (negative logarithm of the EC50 concentration), lip10 assay (converted). The method, then: Human B lymphoblastoid cells (Jiyoye) were cultured in RPMI 1640 medium at a density of 500 000 cells/ml in 24-well plates. Cells were treated with a concentration range of compounds (0.001-10 μM) and vehicle alone (DMSO, 0.1% v/v). In order to generate positive control treatments separate wells were treated with 10 μM E64d & 0.1 μM LHVS. The cells were incubated at 37° C. in a humidified incubator containing 5% CO2. After 24 hours the plates were centrifuged at 150×g for five minutes and the media removed. Cells were lysed by adding 65 ul of ice-cold phosphate buffered saline (PBS) containing 1% (v/v) Triton X-100 and protease inhibitors and incubated on ice for 20 minutes. The samples were centrifuged at 18 000×g for 15 minutes at 4° C. and the resulting supernatants collected and stored at −80° C. until required. After measurement of protein concentration using a micro-BCA protein assay all samples were diluted to […] and 50 l of each sample were coated overnight at 4° C. onto wells of high protein-binding 96-well plates. The wells were washed once with PBS (200 l/well) and then incubated at room temperature for 2 hours with 10 μg/ml mouse anti-CD74 Pin.1 monoclonal antibody (50 l/well) in PBS containing 0.05% (v/v) Tween-20 (PBS-T) and 2% (w/v) BSA (PBS-T/BSA). Unbound antibody was then removed by washing three times with PBS-T and followed by the addition of rabbit anti-mouse IgG antibody conjugated to horseradish peroxidase. After washing five times with PBS-T 100 μl of tetramethylbenzidine substrate was added to each well and incubated for 10 minutes on a plate shaker. The reaction was stopped by the addition of 100 μl of 1M hydrochloric acid. Antibody binding was quantified by measuring the optical density (OD, 450 nm) using a Molecular Devices Spectramax Plus. The OD of vehicle-only treated cells was removed from all values and the data was expressed as a percentage of the OD generated from the mean E64d/LHVS-treated cells. The potency of compounds (EC50) was measured by calculating the concentration of inhibitor required to generate 50% inhibition relative to E64d/LHVS-treated cells.
A general note: ELISA stands for enzyme-linked immunosorbent assay.

Setting [3] is: pH5.5, fluorescence at 20 minutes, read-out: Cat S activity IC50.

Like-named read-outs stand apart in the source and are kept apart here.

Sequence of recombinant human Cathepsin S (P25774 115-331): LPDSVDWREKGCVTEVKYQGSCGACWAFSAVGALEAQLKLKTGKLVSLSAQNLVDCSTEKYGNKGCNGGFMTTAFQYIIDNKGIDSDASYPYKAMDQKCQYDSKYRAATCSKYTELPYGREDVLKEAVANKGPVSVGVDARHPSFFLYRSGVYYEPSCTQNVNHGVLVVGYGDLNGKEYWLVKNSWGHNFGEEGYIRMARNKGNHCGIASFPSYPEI

By bioavailability is commonly meant the share of a dose that reaches the circulation, judged against a reference dose that is usually intravenous. In the case of `CN(C)C(=O)CN1CCC(CCOc2ccc(-c3cc4c(ncn4C)c(C#N)n3)cc2C(F)(F)F)CC1.Cl` [EP 09150709.5 - Example 14d, reference compound], in data set [1] (setting [3]), the IC50 came to 8.3 nM. In the data set “Rat oral bioavailability”, the bioavailability came out at 9%.
`CN(C)C(=O)CN1CCC(CCOc2ccc(-c3cc4c(nnn4C)c(C#N)n3)cc2C(F)(F)F)CC1.Cl` [Example 2a, 6-(4-(2-(1-(2-dimethylamino-2-oxoethyl)piperidin-4-yl)ethoxy)-3-(trifluoromethyl)-phenyl)-1-methyl-1H-[1,2,3]triazolo[4,5-c]pyridine-4-carbonitrile hydrochloride]: the values for the IC50 in data set [1] (setting [3]) and in data set [1] (read-out: pIC50 (negative logarithm of the IC50 concentration) for inhibition of human cathepsin S (converted)) were 1.5 nM and under 10 nM, respectively. The EC50 in data set [2] is under 100 nM. The bioavailability in “Rat oral bioavailability” is 42%.

The record behind these values is patent publication US9115126B2, “1H-[1,2,3]triazolo[4,5-c]pyridine-4-carbonitrile derivatives” (Merck Sharp & Dohme B.V., priority 2010, dated 2015).
